Data: patent publication US11878975B2, “Substituted indole compounds useful as TLR inhibitors” (BRISTOL-MYERS SQUIBB COMPANY, priority 2017, dated 2024)

Key:
Format in all cases: cell-based
human TLR9 = target: T1, human TLR9 (Homo sapiens, UniProt Q9NR96); test: TLR9 inhibition reporter assay (HEK-Blue cells, SEAP reporter, ODN2006 stimulation); conditions: HEK-Blue cells overexpressing human TLR9, SEAP reporter, ODN2006 5 nM
T1 construct: host or cells: HEK-Blue cells
T1 sequence (Q9NR96 26-1032): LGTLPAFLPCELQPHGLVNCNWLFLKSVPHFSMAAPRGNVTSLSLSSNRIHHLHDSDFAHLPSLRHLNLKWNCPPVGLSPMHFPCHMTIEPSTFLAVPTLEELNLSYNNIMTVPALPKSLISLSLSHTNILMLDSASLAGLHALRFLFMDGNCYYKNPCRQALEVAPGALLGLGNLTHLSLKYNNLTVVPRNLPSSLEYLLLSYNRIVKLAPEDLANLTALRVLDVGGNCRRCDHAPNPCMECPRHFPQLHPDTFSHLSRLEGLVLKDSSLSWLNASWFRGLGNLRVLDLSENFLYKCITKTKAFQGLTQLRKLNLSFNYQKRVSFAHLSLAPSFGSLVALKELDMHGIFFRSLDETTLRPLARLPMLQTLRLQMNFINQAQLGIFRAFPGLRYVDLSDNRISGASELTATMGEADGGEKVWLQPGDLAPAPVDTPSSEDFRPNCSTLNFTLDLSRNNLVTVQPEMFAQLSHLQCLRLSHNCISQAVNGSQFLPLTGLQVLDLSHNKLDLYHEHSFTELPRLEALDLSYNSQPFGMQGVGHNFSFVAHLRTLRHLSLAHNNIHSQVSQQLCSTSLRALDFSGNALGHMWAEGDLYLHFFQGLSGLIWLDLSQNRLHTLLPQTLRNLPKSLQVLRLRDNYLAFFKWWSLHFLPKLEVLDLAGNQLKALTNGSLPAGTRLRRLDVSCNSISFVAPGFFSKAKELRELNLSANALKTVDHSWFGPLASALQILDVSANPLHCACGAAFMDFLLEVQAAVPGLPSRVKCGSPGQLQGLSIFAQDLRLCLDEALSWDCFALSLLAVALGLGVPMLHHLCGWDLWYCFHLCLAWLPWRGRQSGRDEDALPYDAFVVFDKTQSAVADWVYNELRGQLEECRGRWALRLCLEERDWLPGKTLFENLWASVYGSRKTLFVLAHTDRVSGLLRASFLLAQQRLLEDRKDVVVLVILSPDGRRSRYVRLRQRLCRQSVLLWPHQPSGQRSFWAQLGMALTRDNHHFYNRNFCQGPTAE
Outline: (§1)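 Dose range 0.05 nM–50 μM; 30 min preincubation, RT. Agonists: TLR7 gardiquimod 7.5 μM, TLR8 R848 15.9 μM, TLR9 ODN2006 5 nM. 22 h, 37 °C, 5% CO2. SEAP (IFN-β minimal promoter with NF-κB/AP-1 sites) via colorimetric detection medium; % inhibition vs agonist+DMSO and reference-inhibitor wells.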

human TLR8 = target: T2, human TLR8 (Homo sapiens, UniProt Q9NR97); test: TLR8 inhibition reporter assay (HEK-Blue cells, SEAP reporter, R848 stimulation); conditions: HEK-Blue cells overexpressing human TLR8, SEAP reporter, R848 15.9 μM
T2 construct: host or cells: HEK-Blue cells
T2 sequence (Q9NR97 27-1041): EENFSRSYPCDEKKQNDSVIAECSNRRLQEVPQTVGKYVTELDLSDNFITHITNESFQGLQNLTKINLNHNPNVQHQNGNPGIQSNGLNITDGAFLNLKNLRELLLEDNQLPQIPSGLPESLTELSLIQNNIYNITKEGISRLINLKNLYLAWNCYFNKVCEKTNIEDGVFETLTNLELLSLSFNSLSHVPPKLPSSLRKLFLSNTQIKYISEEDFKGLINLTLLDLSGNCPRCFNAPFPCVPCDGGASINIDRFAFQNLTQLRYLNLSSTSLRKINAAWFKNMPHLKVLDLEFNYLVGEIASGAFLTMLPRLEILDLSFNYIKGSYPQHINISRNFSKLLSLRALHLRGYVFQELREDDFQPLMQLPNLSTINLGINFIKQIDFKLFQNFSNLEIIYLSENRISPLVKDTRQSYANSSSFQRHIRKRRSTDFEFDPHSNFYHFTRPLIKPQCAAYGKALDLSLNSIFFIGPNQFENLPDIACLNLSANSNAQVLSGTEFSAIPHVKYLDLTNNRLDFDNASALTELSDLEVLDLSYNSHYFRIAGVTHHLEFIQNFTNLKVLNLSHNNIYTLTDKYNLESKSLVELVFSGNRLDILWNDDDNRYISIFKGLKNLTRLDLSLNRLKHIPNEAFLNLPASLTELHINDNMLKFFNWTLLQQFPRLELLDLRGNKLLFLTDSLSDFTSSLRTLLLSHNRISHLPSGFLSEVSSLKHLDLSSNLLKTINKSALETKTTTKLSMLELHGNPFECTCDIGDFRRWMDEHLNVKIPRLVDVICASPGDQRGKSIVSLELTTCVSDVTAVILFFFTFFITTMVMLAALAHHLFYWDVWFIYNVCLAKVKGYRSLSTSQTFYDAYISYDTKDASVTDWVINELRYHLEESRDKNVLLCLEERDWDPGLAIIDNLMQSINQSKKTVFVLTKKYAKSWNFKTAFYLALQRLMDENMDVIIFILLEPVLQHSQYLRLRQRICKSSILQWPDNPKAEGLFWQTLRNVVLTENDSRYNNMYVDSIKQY
Outline: as §1

human TLR7 = target: T3, human TLR7 (Homo sapiens, UniProt Q9NYK1); test: TLR7 inhibition reporter assay (HEK-Blue cells, SEAP reporter, gardiquimod stimulation); conditions: HEK-Blue cells overexpressing human TLR7, SEAP reporter, gardiquimod 7.5 μM
T3 construct: host or cells: HEK-Blue cells
T3 sequence (Q9NYK1 27-1049): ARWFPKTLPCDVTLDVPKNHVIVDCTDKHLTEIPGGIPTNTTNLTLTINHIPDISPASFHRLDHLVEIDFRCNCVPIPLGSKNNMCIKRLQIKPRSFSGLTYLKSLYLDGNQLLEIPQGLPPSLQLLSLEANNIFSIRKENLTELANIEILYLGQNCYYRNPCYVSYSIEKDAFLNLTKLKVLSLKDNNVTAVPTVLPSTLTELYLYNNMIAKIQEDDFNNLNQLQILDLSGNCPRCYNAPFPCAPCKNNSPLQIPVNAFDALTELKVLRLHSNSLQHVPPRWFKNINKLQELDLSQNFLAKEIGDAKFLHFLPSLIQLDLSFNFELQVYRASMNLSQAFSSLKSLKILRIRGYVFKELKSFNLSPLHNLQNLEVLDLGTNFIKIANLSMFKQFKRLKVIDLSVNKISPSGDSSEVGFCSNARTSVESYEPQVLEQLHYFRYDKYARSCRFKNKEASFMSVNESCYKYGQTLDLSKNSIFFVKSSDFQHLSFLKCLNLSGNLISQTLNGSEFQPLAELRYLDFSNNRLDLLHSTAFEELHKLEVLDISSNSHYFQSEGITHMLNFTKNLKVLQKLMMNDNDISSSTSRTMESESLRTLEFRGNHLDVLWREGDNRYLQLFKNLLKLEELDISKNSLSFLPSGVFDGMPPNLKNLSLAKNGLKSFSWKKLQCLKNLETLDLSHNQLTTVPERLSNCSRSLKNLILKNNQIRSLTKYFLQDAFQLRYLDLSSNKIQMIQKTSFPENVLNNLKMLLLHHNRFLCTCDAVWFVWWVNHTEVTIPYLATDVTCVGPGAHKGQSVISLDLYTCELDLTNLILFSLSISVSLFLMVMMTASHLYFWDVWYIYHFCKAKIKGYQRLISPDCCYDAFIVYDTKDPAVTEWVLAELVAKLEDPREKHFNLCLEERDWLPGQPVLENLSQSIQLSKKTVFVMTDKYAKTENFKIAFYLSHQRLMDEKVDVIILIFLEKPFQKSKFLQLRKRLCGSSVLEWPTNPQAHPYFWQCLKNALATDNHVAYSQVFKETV
Outline: as §1

Structure (SMILES) | IC50 (human TLR9) | IC50 (human TLR8) | IC50 (human TLR7)
Cc1c(-c2[nH]c3ccc(C4CCCNC4)cc3c2C(C)C)ccc2ncnn12 (stereo not drawn) [Example 188] | 7050 nM | 66 nM | 161 nM
COc1cc(-c2[nH]c3ccc(C4CCCN(C(=O)C5CCN(C)CC5)C4)cc3c2C(C)C)cn2ncnc12 (stereo not drawn) [Example 194] | 12000 nM | 23 nM | 6 nM
Cc1cc(-c2[nH]c3ccc(C4CCCN(C(=O)CN5CCOCC5)C4)cc3c2C(C)C)cc(C)n1 (stereo not drawn) [Example 196] | 31600 nM | 84 nM | 16 nM
Cc1cc(-c2[nH]c3ccc(C4CCCN(C(=O)CN5CCOCC5)C4)cc3c2C(C)C)cc(C)n1 (stereo not drawn) [Example 197] | 44600 nM | 16 nM | 2 nM
Cc1cc(-c2[nH]c3ccc(C4CCCN(C(=O)C5C(C)(C)C5(C)C)C4)cc3c2C(C)C)cc(C)n1 (stereo not drawn) [Example 198] | 23800 nM | 1100 nM | 384 nM
Cc1cc(-c2[nH]c3ccc(C4CCCN(C(=O)C5(C)CC5)C4)cc3c2C(C)C)cc(C)n1 (stereo not drawn) [Example 199] | 36900 nM | 427 nM | 89 nM
Cc1cc(-c2[nH]c3ccc(C4CCCN(C(=O)C5C(C)(C)C5(C)C)C4)cc3c2C(C)C)cc(C)n1 (stereo not drawn) [Example 200] | 26500 nM | 244 nM | 40 nM
Cc1cc(-c2[nH]c3ccc(C4CCCN(C(=O)C5(N)CC5)C4)cc3c2C(C)C)cc(C)n1 (stereo not drawn) [Example 201] | 19300 nM | 109 nM | 7 nM
Cc1cc(-c2[nH]c3ccc(C4CCCN(C(=O)C5(C)CC5)C4)cc3c2C(C)C)cc(C)n1 (stereo not drawn) [Example 202] | 12200 nM | 35 nM | 4 nM
Cc1cc(-c2[nH]c3ccc(C4CCCN(C(=O)C5(C)COC5)C4)cc3c2C(C)C)cc(C)n1 (stereo not drawn) [Example 203] | 43900 nM | 345 nM | 56 nM
Cc1cc(-c2[nH]c3ccc(C4CCCN(C(=O)C5(C)COC5)C4)cc3c2C(C)C)cc(C)n1 (stereo not drawn) [Example 204] | > 50000 nM | 55 nM | 4 nM
COCC(=O)N1CCCC(c2ccc3[nH]c(-c4cc(C)nc(C)c4)c(C(C)C)c3c2)C1 (stereo not drawn) [Example 205] | > 50000 nM | 402 nM | 120 nM
COCCC(=O)N1CCCC(c2ccc3[nH]c(-c4cc(C)nc(C)c4)c(C(C)C)c3c2)C1 (stereo not drawn) [Example 207] | 43500 nM | 97 nM | 24 nM
COCCC(=O)N1CCCC(c2ccc3[nH]c(-c4cc(C)nc(C)c4)c(C(C)C)c3c2)C1 (stereo not drawn) [Example 208] | > 50000 nM | 43 nM | 6 nM
CNCC(=O)N1CCCC(c2ccc3[nH]c(-c4cc(OC)c5ncnn5c4)c(C(C)C)c3c2)C1 (stereo not drawn) [Example 211, 1-(3-(3-isopropyl-2-(8-methoxy-[1,2,4]triazolo[1,5-a]pyridin-6-yl)-1H-indol-5-yl)piperidin-1-yl)-2-(methylamino)ethan-1-one] | 8000 nM | 11 nM | 3 nM
CNCC(=O)N1CCCC(c2ccc3[nH]c(-c4cc(OC)c5ncnn5c4)c(C(C)C)c3c2)C1 (stereo not drawn) [Example 212] | 8470 nM | 13 nM | 3 nM
CNCC(=O)N1CCCC(c2ccc3[nH]c(-c4cn5ncnc5c(C)c4C)c(C(C)C)c3c2)C1 (stereo not drawn) [Example 213] | 6520 nM | 5 nM | 3 nM

More lines, in order of falling IC50 (human TLR9), values ahead:

IC50 (human TLR9) | IC50 (human TLR8) | IC50 (human TLR7) | Structure (SMILES)
6420 nM | 2.9 nM | 1 nM | Cc1c(-c2[nH]c3ccc(C4CCCN(C(=O)CN(C)C)C4)cc3c2C(C)C)cn2ncnc2c1C (stereo not drawn) [Example 193]
5880 nM | 2.9 nM | 2 nM | CNCC(=O)N1CCCC(c2ccc3[nH]c(-c4cn5ncnc5c(C)c4C)c(C(C)C)c3c2)C1 (stereo not drawn) [Example 214]
2830 nM | 5.9 nM | 0.49 nM | COc1cc(-c2[nH]c3ccc(C4CCCN(C(=O)CN(C)C)C4)cc3c2C(C)C)cn2ncnc12 (stereo not drawn) [Example 192]
2210 nM | 43 nM | 20 nM | COc1ccc(-c2[nH]c3ccc(C4CCCN(C(=O)CN(C)C)C4)cc3c2C(C)C)cc1OC (stereo not drawn) [Example 195]
1870 nM | 2.6 nM | 0.34 nM | COc1cc(-c2[nH]c3ccc(C4CCCN(C(=O)CN(C)C)C4)cc3c2C(C)C)cn2ncnc12 (stereo not drawn) [Example 191]
1030 nM | 0.23 nM | 0.34 nM | Cc1c(-c2[nH]c3ccc(C4CCCNC4)cc3c2C(C)C)cn2ncnc2c1C (stereo not drawn) [Example 189]
851 nM | 0.35 nM | 0.43 nM | Cc1c(-c2[nH]c3ccc(C4CCCNC4)cc3c2C(C)C)cn2ncnc2c1C (stereo not drawn) [Example 190]
677 nM | 123 nM | 19 nM | Cc1cc(-c2[nH]c3ccc(C4CCCN(C(=O)C5CNC5)C4)cc3c2C(C)C)cc(C)n1 (stereo not drawn) [Example 215]
303 nM | 18 nM | 7 nM | CN[C@@H](C)C(=O)N1CCCC(c2ccc3[nH]c(-c4cc(C)nc(C)c4)c(C(C)C)c3c2)C1 (stereo partly drawn) [Example 216]
